Results from patent publication US11311513B2, “Methods, agents, and compositions for the treatment of acute myeloid leukemia” (UNIVERSITY OF CINCINNATI, priority 2017, dated 2022).

Columns and labels:
[1] = system: STAT3 and STAT5 phosphorylation; test: Western blotting of STAT phosphorylation in MONOMAC-6 cells; type: cell-based; settings: 250 nM, 0 min to 24 hrs
Source text: FIG. 10. […] Relative cell viabilities are shown. […] Levels of TET1 transcripts are shown. […] (e-h) MONOMAC-6, THP-1 and NB4 cells were transfected with control siRNA (siNC), siSTAT3, or siSTAT5. Expression levels of STAT5 (e), STAT3 (f), TET2 (g) and TET3 (h) were detected by qPCR 48 hrs post-transfection. (i) THP-1 cells were transfected with control siRNA (siNC), siTET1, siJAK1 or siSTAT5. Gene expression levels were detected by qPCR 48 hrs post-transfection. […] (j) ChIP-qPCR assay was carried out 48 hrs after drug treatment. Enrichment of TET1 or IgG at the JAK1 promoter region and other regions are shown. […] Protein levels were detected thereafter. […] Expression levels of TET1, HIF2 a, IL2RA and FRA2 (1) were detected through qPCR. The enrichment of STAT5 on the promoters of TET1 (Site 2; CpG), HIF2a, IL2RA and FRA2 (m) was determined through ChIP-qPCR assays. *, P<0.05; **, P<0.01, two-tailed t-test. Error bar indicates SD of triplicate experiments.
Cells were washed twice with ice-cold phosphate-buffered saline (PBS) and ruptured with RIPA buffer (Pierce, Rockford, Ill.) containing 5 mM EDTA, PMSF, cocktail inhibitor, and phosphatase inhibitor cocktail. Cell extracts were microcentrifuged for 20 min at 10,000 g and supernatants were collected. Cell lysates were resolved by SDS-PAGE and transferred onto PVDF membranes. […]

[2] = system: TET1-high AML (including MONOMAC-6, THP-1, and KASUMI-1) cells; test: MTS viability of AML cell lines versus JAK/STAT inhibitors; type: cell-based; settings: MTS 48 hrs; up to 500 nM
Experimental: FIG. 4. […] (a) Structures of NSC-370284 and UC-514321. […] Cells were treated with drugs at indicated doses. Cell viability was detected by MTS 48 hrs post-treatment. Error bar indicates SD of triplicate experiments. […] Secondary BMT recipient mice were transplanted with primary leukemic BM cells with MLL-AF9 (f) or AML-ETO9a (g). […] Kaplan-Meier curves are shown. The P values were determined by log-rank test. […] Secondary BMT recipient mice were transplanted with primary leukemic BM cells with MLL-AF10 or FLT3-ITD/NPM1^mut. […] Kaplan-Meier curves are shown. The P values were determined by log-rank test. (j) Wright-Giemsa staining of mouse PB and BM, or H&E staining of mouse spleen and liver of MLL-AF9 AML secondary BMT recipients with or without drug treatment.
These experiments were conducted as described previously (Jiang, X., et al., Blockade of miR-150 Maturation by MLL-Fusion/MYC/LIN-28 Is Required for MLL-Associated Leukemia, Cancer Cell 22:524-35 (2012); Li, Z., et al., miR-196b directly targets both HOXA9/MEIS1 oncogenes and FAS tumour suppressor in MLL-rearranged leukaemia, Nat Commun 2:688 (2012)) with ApoLive-Glo Multiplex Assay Kit, or CellTiter 96 AQueous Non-Radioactive Cell Proliferation Assay Kit (Promega, Madison, Wis.).

| SMILES | levels of STAT3 and STAT5 phosphorylation [1] | effect in repressing viability of TET1-high AML cells compared with NSC-370284 and other JAK/STAT inhibitors [2] |
| --- | --- | --- |
| COc1cc(C(c2cc3c(cc2O)OCO3)N2CCCC2)cc(OC)c1OC (centres unmarked) [NSC-370284, 6-(1-Pyrrolidinyl(3,4,5-trimethoxyphenyl)methyl)-1,3-benzodioxol-5-ol] | no significant alterations | – |
| CC(C)(C)c1cc(C(c2cc3c(cc2O)OCO3)N2CCOCC2)cc(C(C)(C)C)c1O (centres unmarked) [UC-514321, 6-{[4-Hydroxy-3,5-bis(2-methyl-2-propanyl)phenyl](4-morpholinyl)methyl}-1,3-benzodioxol-5-ol] | – | enhanced effect |
